Reference: EP2241565A1, “Aurora kinase inhibitors compounds” (Universität Leipzig, priority 2009, dated 2010)
“Also recorded” adds a separate entry of the source.

How the values were obtained:
FGFR = experiment: RTK-Assay (ELISA, chemiluminescence); format: biochemical
Experimental: To determine the IC50 of receptor-tyrosine-kinase an assay based on the ELISA-principle using kinases from Biomol (N-terminally fused to GST), POD-coupled antibody from Calbiochem (PY20) and BM chemiluminescence ELISA substrate from Roche was followed.
In short, a white 96 wells microplate was incubated overnight with 100 µl/well of the substrate solution (poly-Glu-Tyr diluted with PBS to 100 µg/ml) at 4 °C. The solution was removed and the plate was washed twice for 2 min with PBS-T. Afterwards the kinase solution (50 µl/well)( KDR (VEGFR2), 5 ng; Flt4 (VEGFR3), 20 ng; EGFR, 5 ng; IGFR, 15 ng; FGFR, 10 ng and Tie2, 20 ng) and the inhibitor solution (25 µl/well) were added to each well. To perform positive and negative control, 5% aqueous DMSO (25 µl/well) were used instead of inhibitor solution. Addition of ATP solution (25 µl/well) started the reaction, whereas 40 mM MnCl2 solution (25 µl/well) was added to the negative control instead of ATP. After incubation under mild shaking conditions for 30 min at rt the plate was washed with PBS-T (3 x 2 min) and subsequently incubated with antibody solution (anti-Phosphotyrosine-antibody (POD-coupled) diluted 1:10.000 in PBS-T + 0,2% (m/v) BSA)(100 µl/well) for 1 h again while shaking. In the end the plate was washed with PBS-T (3x5 min) and provided with the chemiluminescence substrate (50 µl/well). After 3 min the occurring luminescence was measured using a luminometer. […] For determination of IC50 values, the relative luminescence units per second (RLU/s) were blotted against the inhibitor concentrations. In doing so each concentration measurement was done triplicate and at least 5 different inhibitor concentrations were used to determine IC50 value.
This assay is based on the ELISA-principle using kinases from Biomol (N-terminally fused to GST), POD-coupled antibody from Calbiochem (PY20) and BM chemiluminescence ELISA substrate from Roche. […]
For determination of IC50 values, the relative luminescence units per second (RLU/s) were blotted against the inhibitor concentrations. […]

Aurora B = biological target: T1, Aurora B (Homo sapiens, UniProt Q96GD4); experiment: In vitro Aurora B kinase assay (Invitrogen Z'-lyte kinase assay kit, Ser/Thr 1 peptide); format: biochemical; conditions: 64 µM ATP
T1 construct: purchased Invitrogen PV3970
T1 sequence (Q96GD4 whole entry): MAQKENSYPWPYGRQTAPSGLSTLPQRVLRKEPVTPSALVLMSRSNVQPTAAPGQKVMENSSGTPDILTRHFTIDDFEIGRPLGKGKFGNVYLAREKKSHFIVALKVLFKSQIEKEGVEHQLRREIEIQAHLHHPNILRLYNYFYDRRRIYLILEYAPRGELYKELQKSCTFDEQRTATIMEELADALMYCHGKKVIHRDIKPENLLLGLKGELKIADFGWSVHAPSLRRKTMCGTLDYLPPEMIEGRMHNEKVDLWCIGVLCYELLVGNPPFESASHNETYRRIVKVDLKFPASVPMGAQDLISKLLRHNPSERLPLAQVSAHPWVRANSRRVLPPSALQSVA
Experimental: The IC50 for the different compounds was determined with Invitrogen Z'-Iyte kinase assay kit Ser/Thr 1 peptide PV3174 following the manufacturer's instructions. […] This amount was then used in subsequent assay steps.
Compounds were prepared in 384-well plates (Greiner 384-well PP 781280) at a highest concentration of 400 µM (in 4% DMSO) and then serially diluted in 2-fold steps by hand, keeping the DMSO percentage constant. 1.25 µl of compound solution was subsequently transferred 1:1 to a 384-well assay plate (Greiner 384-well ProxiPlate Plus F 6008260) for screening at a highest concentration in the final assay of 100 µM (in 1% DMSO).
In the first step, 2.5 µl of a solution containing 8 nM Aurora A (batch S74, prepared in-house at EMBL) or 40 nM Aurora B (Invitrogen PV3970) and 4 µM Ser/Thr peptide 1 (Invitrogen PV3174) was added to each well, followed by 1.25 µl of the respective ATP solution (40 µM for Aurora A, 256 µM for Aurora B). […] In the final step, the reaction in each well was stopped by the addition of 2.5 µl Stop reagent, followed by a brief centrifugation step and immediate readout (PerkinElmer EnVision HTS; ex. 405 nm, coumarin em. 450 nm, fluorescein em. 535 nm).
Percentage phosphorylation was calculated using 0% and 100% phosphorylation controls. […]

HeLa cells = experiment: Flow cytometry (FACS) DNA content / cell cycle profile; format: cell-based, human; conditions: 24 h; for % of cells 2<n<4 / % of cells 2n / % of cells 4n / % of cells <2n / % of cells >4n: HeLa cells; for effect on DNA content / distribution of cells in the cell cycle stages: ZM1 2 µM, (A) and (C) increasing concentrations
Experimental: Adherent HeLa cells were routinely passaged and maintained in D-MEM medium supplemented with 10% Fetal Bovine Serum (FBS), 1% Penicillin/Streptomycin and 2 mM L-Glutamine. The cells were cultured at 37 °C; 5% CO2. hTERT-RPE1 cells were grown in DMEM with 10% fetal bovine serum. HeLa cells constitutively expressing green fluorescent protein-conjugated Histone H2B and mRed fluorescent protein-conjugated α-tubulin were maintained in D-MEM medium supplemented with 10% Fetal Bovine Serum (FBS), 1% Penicillin/Streptomycin, 2 mM L-Glutamine and 0.5 µg/mL Puromycin and cultured at 37 °C; 5% CO2.
After treatment, FACS analysis was performed on a BD FACSCanto™ Flow Cytometer (Cat.No. 335860 BD Biosciences) using FACSDiva Software. Cells were trypsinized, washed wish PBS and fixed overnight in EtOH (-20°C). After washing with PBS, cells were stained with a propidium iodide solution (PI; 15 µg/mL)/ RNase A (30 µg/mL) for 30 min at 37 °C. RNase was added to avoid signals caused by the binding of PI to RNA.
We first examined by flow cytometry the cell cycle profiles of HeLa cells incubated in medium containing increasing concentrations of any of (A) or (C) for 24 h.

SMILES | IC50 (FGFR) [µM] | IC50 (Aurora B) [µM] | % of cells 2<n<4 (HeLa cells; 20µM) [%] | % of cells 2n (HeLa cells; 20µM) [%] | % of cells 4n (HeLa cells; 20µM) [%] | % of cells <2n (HeLa cells; 20µM) [%] | % of cells >4n (HeLa cells; 20µM) [%] | % of cells 2<n<4 (HeLa cells; 40µM) [%] | % of cells 2n (HeLa cells; 40µM) [%] | % of cells 4n (HeLa cells; 40µM) [%] | % of cells <2n (HeLa cells; 40µM) [%] | % of cells >4n (HeLa cells; 40µM) [%] | % of cells 2<n<4 (HeLa cells; 100µM) [%] | % of cells 2n (HeLa cells; 100µM) [%] | % of cells 4n (HeLa cells; 100µM) [%] | % of cells <2n (HeLa cells; 100µM) [%] | % of cells >4n (HeLa cells; 100µM) [%] | effect on DNA content / distribution of cells in the cell cycle stages (HeLa cells)
CC(C)Nc1nc(-c2ccco2)nc2ccc(C#CCO)cc12 [Compound (C), 3-(2-(Furan-2-yl)-4-(isoiproipylamino)quinazolin-6-yl)prop-2-yn-l-ol] | > 100 | 3380 | 17.5 | 55.2 | 19.0 | 7.6 | 1.3 | 20.0 | 47.2 | 21.2 | 10.5 | 1.8 | 25.2 | 21.4 | 41.8 | 10.0 | 1.5 | increased amount of 4n DNA; also recorded: dose dependent increase in the proportion of cells with more than 2n DNA content
CC(C)Nc1nc(-c2ccco2)nc2ccc(/C=C/C(C)(C)O)cc12 [Compound (A), (E)-4-(2-(Furan-2-yl)-4-(isopropylamino)quinazolin-6-yl)-2-methylbut-3-en-2-ol] | > 100 | 16.2 | 17.6 | 58.5 | 19.2 | 4.4 | 0.7 | 17.7 | 58.5 | 19.9 | 3.8 | 3.8 | 15.5 | 48.4 | 20.8 | 13.8 | 2.1 | did not alter the distribution of cells in the different cell cycle stages
